In the supplement of paper PMC10307832:

Columns and labels:
Test in all cases: relative viability (nuclei count vs DMSO), 5 days (fraction); higher = more cells survive
[1] = test system: UMC-11
Method in brief: (§1)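 Relative viability was taken as the ratio of nuclei in treated wells to nuclei in vehicle wells. Lung cancer cell lines in 1536-well plates received compounds by pin tool one day after seeding, either one drug alone or a fixed anchor-drug dose plus five library-drug doses (not always all listed) in √10 steps. Nuclei were counted on 4× images after 5 days of treatment, and values are medians of duplicate plates.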

[2] = test system: NCI-H2009
Method in brief: as §1

[3] = test system: HOP-62
Method in brief: as §1

[4] = test system: NCI-H1755
Method in brief: as §1

[5] = test system: NCI-H2347
Method in brief: as §1

[6] = test system: NCI-H522
Method in brief: as §1

[7] = test system: SK-MES-1
Method in brief: as §1

[8] = test system: NCI-H1793
Method in brief: as §1

[9] = test system: COR-L 105
Method in brief: as §1

[10] = test system: NCI-H2170
Method in brief: as §1

[11] = test system: NCI-H647
Method in brief: as §1

CCN(CC)CCCCNc1ncc2cc(-c3cc(OC)cc(OC)c3)c(NC(=O)NC(C)(C)C)nc2n1 + COc1cccc2cc(-c3nc([C@H]4CC[C@H](C(=O)O)CC4)n4ncnc(N)c34)[nH]c12 [OSI-027] (partner 0.5 µM)
relative viability ([1]; first compound 0.01 µM): 0.508 | relative viability ([1]; first compound 0.03162 µM): 0.473 | relative viability ([1]; first compound 0.1 µM): 0.481 | relative viability ([1]; first compound 0.3162 µM): 0.485 | relative viability ([1]; first compound 1 µM): 0.443 | relative viability ([2]; first compound 0.01 µM): 0.678 | relative viability ([2]; first compound 0.03162 µM): 0.669 | relative viability ([2]; first compound 0.1 µM): 0.642 | relative viability ([2]; first compound 0.3162 µM): 0.675 | relative viability ([2]; first compound 1 µM): 0.604 | relative viability ([3]; first compound 0.01 µM): 0.89 | relative viability ([3]; first compound 0.03162 µM): 0.873 | relative viability ([3]; first compound 0.1 µM): 1.12 | relative viability ([3]; first compound 0.3162 µM): 1.11 | relative viability ([3]; first compound 1 µM): 0.771 | relative viability ([4]; first compound 0.01 µM): 0.625 | relative viability ([4]; first compound 0.03162 µM): 0.77 | relative viability ([4]; first compound 0.1 µM): 0.811 | relative viability ([4]; first compound 0.3162 µM): 0.799 | relative viability ([4]; first compound 1 µM): 0.707 | relative viability ([5]; first compound 0.01 µM): 0.419 | relative viability ([5]; first compound 0.03162 µM): 0.38 | relative viability ([5]; first compound 0.1 µM): 0.408 | relative viability ([5]; first compound 0.3162 µM): 0.381 | relative viability ([5]; first compound 1 µM): 0.358 | relative viability ([6]; first compound 0.01 µM): 0.639 | relative viability ([6]; first compound 0.03162 µM): 0.625 | relative viability ([6]; first compound 0.1 µM): 0.676 | relative viability ([6]; first compound 0.3162 µM): 0.674 | relative viability ([6]; first compound 1 µM): 0.698 | relative viability ([7]; first compound 0.01 µM): 0.627 | relative viability ([7]; first compound 0.03162 µM): 0.654 | relative viability ([7]; first compound 0.1 µM): 0.58 | relative viability ([7]; first compound 0.3162 µM): 0.81 | relative viability ([7]; first compound 1 µM): 0.521 | relative viability ([8]; first compound 0.01 µM): 0.238 | relative viability ([8]; first compound 0.03162 µM): 0.253 | relative viability ([8]; first compound 0.1 µM): 0.318 | relative viability ([8]; first compound 0.3162 µM): 0.307 | relative viability ([8]; first compound 1 µM): 0.206 | relative viability ([9]; first compound 0.01 µM): 0.704 | relative viability ([9]; first compound 0.03162 µM): 0.591 | relative viability ([9]; first compound 0.1 µM): 0.749 | relative viability ([9]; first compound 0.3162 µM): 0.826 | relative viability ([9]; first compound 1 µM): 0.417 | relative viability ([10]; first compound 0.01 µM): 0.768 | relative viability ([10]; first compound 0.03162 µM): 0.67 | relative viability ([10]; first compound 0.1 µM): 0.71 | relative viability ([10]; first compound 0.3162 µM): 0.79 | relative viability ([10]; first compound 1 µM): 0.75 | relative viability ([11]; first compound 0.01 µM): 0.539 | relative viability ([11]; first compound 0.03162 µM): 0.8 | relative viability ([11]; first compound 0.1 µM): 0.848 | relative viability ([11]; first compound 0.3162 µM): 0.861 | relative viability ([11]; first compound 1 µM): 0.56
